For orientation: EC50 means the concentration that produces a half-maximal response. A high value points to weaker potency.

This note sets out measurements from patent publication US20250171457A1, “NITROGEN-CONTAINING HETEROCYCLIC COMPOUND HAVING NRF2 ACTIVATION EFFECT” (CHUGAI SEIYAKU KABUSHIKI KAISHA, priority 2022, published 2025).

The subject of this assay is Nrf2 transcriptional activity (pARE-Luc reporter) in HepG2 cells. Description: In vitro Nrf2 transcriptional activity measurement by ARE-dependent reporter assay in HepG2 cell. Type of assay: cell-based, human. The following applies: Homo sapiens; HepG2 cells transfected with pARE-Luc, 4 hours at 37° C.; luciferase activity of Example 1-54 or Example 17-23 at 3.75 μM defined as 100%. A digest of the protocol:
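Luminescence readout (Bright-Glo) after 4 h, 37° C compound exposure of HepG2 cells carrying the ARE-luciferase vector pGL4.37. Each well converted to % response versus reference compound at 3.75 μM, and EC50 derived from dose-response curves.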
For the compound `COCCN1CCN(c2cc(Cl)c(C(=O)N3COc4c(cccc4-c4cc(N5C6CCC5COC6)c(C(=O)O)cc4F)C3)c(Cl)c2)[C@H](C)C1` [Compound 7-9, 4-[3-[2,6-Dichloro-4-[(2R)-4-(2-methoxyethyl)-2-methylpiperazin-1-yl]benzoyl]-2,4-dihydro-1,3-benzoxazin-8-yl]-5-fluoro-2-(3-oxa-8-azabicyclo[3.2.1]octan-8-yl)benzoic acid], the EC50 is 8.4 nM.
As for `COCCN1CC2CC(C1)N2c1cc(Cl)c(C(=O)N2COc3c(cccc3-c3cc(N4C5CCC4COC5)c(C(=O)O)cc3F)C2)c(Cl)c1` [Compound 7-10, 4-[3-[2,6-Dichloro-4-[3-(2-methoxyethyl)-3,6-diazabicyclo[3.1.1]heptan-6-yl]benzoyl]-2,4-dihydro-1,3-benzoxazin-8-yl]-5-fluoro-2-(3-oxa-8-azabicyclo[3.2.1]octan-8-yl)benzoic acid], a half-maximal response (EC50) required 27 nM.
Turning to `COCCN1C2CCC1CN(c1cc(Cl)c(C(=O)N3COc4c(cccc4-c4cc(N5C6CCC5COC6)c(C(=O)O)cc4F)C3)c(Cl)c1)C2` [Compound 7-11, 4-[3-[2,6-Dichloro-4-[8-(2-methoxyethyl)-3,8-diazabicyclo[3.2.1]octan-3-yl]benzoyl]-2,4-dihydro-1,3-benzoxazin-8-yl]-5-fluoro-2-(3-oxa-8-azabicyclo[3.2.1]octan-8-yl)benzoic acid], the EC50 was 3.2 nM.
In turn, `COCCN1CC2CCC(C1)N2c1cc(Cl)c(C(=O)N2COc3c(cccc3-c3cc(N4C5CCC4COC5)c(C(=O)O)cc3F)C2)c(Cl)c1` [Compound 7-12, 4-[3-[2,6-Dichloro-4-[3-(2-methoxyethyl)-3,8-diazabicyclo[3.2.1]octan-8-yl]benzoyl]-2,4-dihydro-1,3-benzoxazin-8-yl]-5-fluoro-2-(3-oxa-8-azabicyclo[3.2.1]octan-8-yl)benzoic acid] yielded an EC50 of 2.3 nM.
In the case of `O=C(O)c1cc(F)c(-c2cccc3c2OCN(C(=O)c2c(Cl)cc(N4CC5CCC(C4)N5CC(F)F)cc2Cl)C3)cc1N1C2CCC1COC2` [Compound 7-13, 4-[3-[2,6-Dichloro-4-[8-(2,2-difluoroethyl)-3,8-diazabicyclo[3.2.1]octan-3-yl]benzoyl]-2,4-dihydro-1,3-benzoxazin-8-yl]-5-fluoro-2-(3-oxa-8-azabicyclo[3.2.1]octan-8-yl)benzoic acid], it took 5.7 nM to reach a half-maximal effect (EC50).
As to `COCCN1C2CC1CN(c1cc(Cl)c(C(=O)N3COc4c(cccc4-c4cc(N5C6CCC5COC6)c(C(=O)O)cc4F)C3)c(Cl)c1)C2` [Compound 7-14, 4-[3-[2,6-Dichloro-4-[6-(2-methoxyethyl)-3,6-diazabicyclo[3.1.1]heptan-3-yl]benzoyl]-2,4-dihydro-1,3-benzoxazin-8-yl]-5-fluoro-2-(3-oxa-8-azabicyclo[3.2.1]octan-8-yl)benzoic acid], a half-maximal response (EC50) required 24 nM.
In the case of `O=C(O)c1cc(F)c(-c2cccc3c2OCN(C(=O)c2c(Cl)cc(N4CC5CCC(C4)N5CC4(F)COC4)cc2Cl)C3)cc1N1C2CCC1COC2` [Compound 7-15, 4-[3-[2,6-Dichloro-4-[8-[(3-fluorooxetan-3-yl)methyl]-3,8-diazabicyclo[3.2.1]octan-3-yl]benzoyl]-2,4-dihydro-1,3-benzoxazin-8-yl]-5-fluoro-2-(3-oxa-8-azabicyclo[3.2.1]octan-8-yl)benzoic acid], the EC50 was 2.5 nM.
On to `COCCN1C[C@H]2CC[C@@H]1CN2c1cc(Cl)c(C(=O)N2COc3c(cccc3-c3cc(N4C5CCC4COC5)c(C(=O)O)cc3F)C2)c(Cl)c1` [Compound 7-16, 4-[3-[2,6-Dichloro-4-[(1R,4R)-5-(2-methoxy-ethyl)-2,5-diazabicyclo[2.2.2]octan-2-yl]benzoyl]-2,4-dihydro-1,3-benzoxazin-8-yl]-5-fluoro-2-(3-oxa-8-azabicyclo[3.2.1]octan-8-yl)benzoic acid], for which a half-maximal response (EC50) required 7.4 nM.
`COCCN1C[C@@H]2CC[C@H]1CN2c1cc(Cl)c(C(=O)N2COc3c(cccc3-c3cc(N4C5CCC4COC5)c(C(=O)O)cc3F)C2)c(Cl)c1` [Compound 7-17, 4-[3-[2,6-Dichloro-4-[(1S,4S)-5-(2-methoxy-ethyl)-2,5-diazabicyclo[2.2.2]octan-2-yl]benzoyl]-2,4-dihydro-1,3-benzoxazin-8-yl]-5-fluoro-2-(3-oxa-8-azabicyclo[3.2.1]octan-8-yl)benzoic acid]: the EC50 amounted to 9 nM.
In turn, `COCC(COC)N1C2CCC1CN(c1cc(Cl)c(C(=O)N3COc4c(cccc4-c4cc(N5C6CCC5COC6)c(C(=O)O)cc4F)C3)c(Cl)c1)C2` [Compound 7-18, 4-[3-[2,6-Dichloro-4-[8-(1,3-dimethoxypropan-2-yl)-3,8-diazabicyclo[3.2.1]octan-3-yl]benzoyl]-2,4-dihydro-1,3-benzoxazin-8-yl]-5-fluoro-2-(3-oxa-8-azabicyclo[3.2.1]octan-8-yl)benzoic acid] registered an EC50 of 1.7 nM.
`COCCN1CCC2(C1)CN(c1cc(Cl)c(C(=O)N3COc4c(cccc4-c4cc(N5C6CCC5COC6)c(C(=O)O)cc4F)C3)c(Cl)c1)C2` [Compound 8-1, 4-[3-[2,6-Dichloro-4-[7-(2-methoxyethyl)-2,7-diazaspiro[3.4]octan-2-yl]benzoyl]-2,4-dihydro-1,3-benzoxazin-8-yl]-5-fluoro-2-(3-oxa-8-azabicyclo[3.2.1]octan-8-yl)benzoic acid] had an EC50 of 1.6 nM.
Consider `O=C(O)c1cc(F)c(-c2cccc3c2OCN(C(=O)c2c(Cl)cc(N4CCN(CC(F)F)CC4)cc2Cl)C3)cc1N1C2CCC1COC2` [Compound 8-2, 4-[3-[2,6-Dichloro-4-[4-(2,2-difluoroethyl)piperazin-1-yl]benzoyl]-2,4-dihydro-1,3-benzoxazin-8-yl]-5-fluoro-2-(3-oxa-8-azabicyclo[3.2.1]octan-8-yl)benzoic acid], for which the EC50 worked out at 4 nM.
To `COCCN1CCN(c2cc(Cl)c(C(=O)N3COc4c(cccc4-c4cc(N5C6CCC5COC6)c(C(=O)O)cc4F)C3)c(Cl)c2)CC1(C)C` [Compound 8-3, 4-[3-[2,6-Dichloro-4-[4-(2-methoxyethyl)-3,3-dimethylpiperazin-1-yl]benzoyl]-2,4-dihydro-1,3-benzoxazin-8-yl]-5-fluoro-2-(3-oxa-8-azabicyclo[3.2.1]octan-8-yl)benzoic acid] belongs 2.6 nM.
As for `COCCN1[C@H](C)CN(c2cc(Cl)c(C(=O)N3COc4c(cccc4-c4cc(N5C6CCC5COC6)c(C(=O)O)cc4F)C3)c(Cl)c2)C[C@@H]1C` [Compound 8-4, 4-[3-[2,6-Dichloro-4-[meso-4-(2-methoxyethyl)-3,5-dimethylpiperazin-1-yl]benzoyl]-2,4-dihydro-1,3-benzoxazin-8-yl]-5-fluoro-2-(3-oxa-8-azabicyclo[3.2.1]octan-8-yl)benzoic acid], the EC50 turned out to be 3.6 nM.
Take `COCCN1CCN(c2cc(Cl)c(C(=O)N3COc4c(cccc4-c4cc(N5C6CCC5COC6)c(C(=O)O)cc4F)C3)c(Cl)c2)CC1C` [Compound 8-5, 4-[3-[2,6-Dichloro-4-[(3S)-4-(2-methoxyethyl)-3-methylpiperazan-1-yl]benzoyl]-2,4-dihydro-1,3-benzoxazin-8-yl]-5-fluoro-2-(3-oxa-8-azabicyclo[3.2.1]octan-8-yl)benzoic acid]: the EC50 stood at 2.4 nM.
The result for `COCCN1CC[C@H](Oc2cc(Cl)c(C(=O)N3COc4c(cccc4-c4cc(N5CCOCC5)c(C(=O)O)cc4F)C3)c(Cl)c2)C1` [Compound 8-6, 4-[3-[2,6-Dichloro-4-[(3S)-1-(2-methoxyethyl)pyrrolidin-3-yl]oxybenzoyl]-2,4-dihydro-1,3-benzoxazin-8-yl]-5-fluoro-2-morpholin-4-ylbenzoic acid] reads 2.7 nM; that for `COCCN1CCC[C@@H](Oc2cc(Cl)c(C(=O)N3COc4c(cccc4-c4cc(N5CCOCC5)c(C(=O)O)cc4F)C3)c(Cl)c2)C1` [Compound 8-7, 4-[3-[2,6-Dichloro-4-[(3R)-1-(2-methoxyethyl)piperidin-3-yl]oxybenzoyl]-2,4-dihydro-1,3-benzoxazin-8-yl]-5-fluoro-2-morpholin-4-ylbenzoic acid], 2.1 nM; that for `O=C(O)c1cc(F)c(-c2cccc3c2OCN(C(=O)c2c(Cl)cc(OC4CN(CC(F)(F)F)C4)cc2Cl)C3)cc1N1C2CCC1COC2` [Compound 8-8, 4-[3-[2,6-Dichloro-4-[1-(2,2,2-trifluoroethyl)azetidin-3-yl]oxybenzoyl]-2,4-dihydro-1,3-benzoxazin-8-yl]-5-fluoro-2-(3-oxa-8-azabicyclo[3.2.1]octan-8-yl)benzoic acid], 4.8 nM.
`COCCN1CC2(CCN(c3cc(Cl)c(C(=O)N4COc5c(cccc5-c5cc(N6C7CCC6COC7)c(C(=O)O)cc5F)C4)c(Cl)c3)C2)C1` [Compound 8-9, 4-[3-[2,6-Dichloro-4-[2-(2-methoxyethyl)-2,7-diazaspiro[3.4]octan-7-yl]benzoyl]-2,4-dihydro-1,3-benzoxazin-8-yl]-5-fluoro-2-(3-oxa-8-azabicyclo[3.2.1]octan-8-yl)benzoic acid]: the EC50 is 9.5 nM.
Compound `CN1CCOC2(C1)CN(c1cc(Cl)c(C(=O)N3COc4c(cccc4-c4cc(N5C6CCC5COC6)c(C(=O)O)cc4F)C3)c(Cl)c1)C2` [Compound 9-1, 4-[3-[2,6-Dichloro-4-(8-methyl-5-oxa-2,8-diazaspiro[3.5]nonan-2-yl)benzoyl]-2,4-dihydro-1,3-benzoxazin-8-yl]-5-fluoro-2-(3-oxa-8-azabicyclo[3.2.1]octan-8-yl)benzoic acid] registered an EC50 of 3.5 nM.
The compound `O=C(O)c1cc(F)c(-c2cccc3c2OCN(C(=O)c2c(Cl)cc(N4CC5(C4)CN(C4CC(F)(F)C4)C5)cc2Cl)C3)cc1N1C2CCC1COC2` [Compound 9-2, 4-[3-[2,6-Dichloro-4-[2-(3,3-difluorocyclobutyl)-2,6-diazaspiro[3.3]heptan-6-yl]benzoyl]-2,4-dihydro-1,3-benzoxazin-8-yl]-5-fluoro-2-(3-oxa-8-azabicyclo[3.2.1]octan-8-yl)benzoic acid] yielded a 50% effective concentration (EC50) of 7.4 nM.
